Test results published in patent US7351722B2, “Use of Mangafodipir for treating oxidative stress effects” (Universite Rene Descartes (Paris V), priority 2001, dated 2008).
Like-named read-outs stand apart in the source and are kept apart here.

Assays:
[1] = Method: The SOD activity of a chemical compound can be determined by the NBT (nitro blue tetrazolium) reduction method according to the technique described by Beauchamp and Fridovich [Anal. Biochem., 44(1), 276-87, (1971)].
The test is carried out at 25° C. in a final volume of buffer of 0.8 ml (50 mM TRIS/HCl, pH 7.6), containing 22 μM of xanthine, 500 U/ml of catalase and 0.2 U/ml of xanthine oxidase. The reduction of NBT, in the presence of 1.5 μg of Mangafodipir or, as a control, in the absence of Mangafodipir, is measured every 30 seconds for 5 minutes. One SOD unit (U SOD) is defined by the amount of enzyme capable of inhibiting the NBT reduction rate by 50%.

[2] = 75.7 μg of Mangafodipir, 10 mM H2O2, pH 7.4
Method: The catalase activity was assayed according to the method described by AEBI [Methods Enzymol., 105, 121-126, (1984)]. The decrease in optical density (OD) at 240 nm of a solution of 10 mM H2O2 in phosphate buffer (50 mM of Na2HPO4/KH2PO4, 0.1 mM EDTA, pH 7.4) was measured in the presence of 75.7 μg of Mangafodipir or, by way of reference, in the presence of 1 unit of bovine catalase.

[3] = test system: Hep 3B human hepatic cell line; settings: 62.5, 125, 250 μg/ml, 1 h before X/XO, MTT after 12 h
Method: (§1) The cells were seeded in a 96-well culture plate, in a proportion of 5×10^4 cells per well, in a final volume of 50 μl.
One hundred μl of Mangafodipir solution at various concentrations (62.5, 125, 250 μg/ml) were deposited into each well (three wells per concentration tested).

[4] = test system: Hep 3B human hepatic cell line; settings: 62.5, 125, 250 μg/ml, 1 h before H2O2, MTT after 12 h
Method: The Hep 3B human hepatic cell line was also used for these experiments.
as §1
One hundred μl of Mangafodipir solution at various concentrations (62.5, 125, 250 μg/ml) were deposited into each well (three wells per concentration tested). After incubation for one hour, 50 μl of a solution of H2O2 at 4 mM were deposited into each well.

[5] = test system: acetaminophen-induced acute hepatic failure; settings: for survival rate: 24 hours after APAP 1000 mg/kg; for number of surviving animals: n = 12
Method: Intraperitoneal injection of acetaminophen into mice induces severe hepatotoxicity, the degree of which can be evaluated by animal survival and macroscopic and microscopic examination of the livers.
The Mangafodipir (marketed under the name […]™ by Nicomed-Amersham) is administered in the form of a bolus, intraperitoneally.
The acetaminophen (APAP), in solution at 100 mg/ml in PBS, at pH 7.4, is administered intraperitoneally.
In a first series of experiments, one group of mice was given a dose of 1000 mg/kg of acetaminophen; a second group was given a dose of 1000 mg/kg of acetaminophen, and a dose of 10 mg/kg of Mangafodipir administered either 2 h before the acetaminophen, or 6 h after; a control group was given Mangafodipir alone (10 mg/kg), or PBS alone.
Animal survival was monitored for 24 hours after the administration of acetaminophen.

[6] = test system: acetaminophen-induced acute hepatic failure; settings: mice given acetaminophen
Text: In each of the groups, the livers of several animals were removed in order to perform a histological study.

[7] = test system: acetaminophen-induced acute hepatic failure; assay: Animal survival in acetaminophen-induced acute hepatic failure, comparison of Mangafodipir, MnTBAP and CuDIPS (Example 7); assay type: in vivo, mice; settings: for number of surviving animals: 10 mg/kg bolus 2 h before 1000 mg/kg APAP, n = 12
Method: The Mangafodipir, the MnTBAP or the CuDIPS are administered in the form of a bolus, in the preventive capacity, 2 hours before the acetaminophen.
Animal survival is monitored for 24 hours after the administration of acetaminophen.

[8] = test system: acetaminophen-induced acute hepatic failure; settings: 500 mg/kg APAP, ASAT after 12 hours
Method: In a second series of experiments, one group of mice was given a dose of 500 mg/kg of acetaminophen; a second group was given the same dose of acetaminophen, and a dose of 10 mg/kg of Mangafodipir administered 2 h before the acetaminophen; a third group of animals was given the same dose of acetaminophen, and a dose of 10 mg/kg of MnTBAP, and a fourth group of animals was given the same dose of acetaminophen, and a dose of 10 mg/kg of CuDIPS. The ASAT serum transaminases are assayed 12 hours after the administration of acetaminophen.

Manganese dipyridoxyl phosphate [Mangafodipir]
rate of reduction of NBT ([1]; 1.5 μg of Mangafodipir in reaction mixture, control 0.0302/minute): 0.01556 min⁻¹
SOD activity ([1]; 1 U SOD inhibits NBT reduction rate by 50%): 680 U SOD per milligram of Mangafodipir
catalase activity [2]: 2 U catalase per milligram of Mangafodipir
mortality of hepatic cells under superoxide anion-mediated oxidative stress [3]: prevents the mortality of hepatic cells
mortality of hepatic cells under hydrogen peroxide-mediated oxidative stress [4]: prevents the mortality of hepatic cells
survival rate ([5]; Mangafodipir after acetaminophen (curative protocol)): greater than 41%
survival rate ([5]; Mangafodipir before acetaminophen (preventive protocol)): about 66%
number of surviving animals ([5]; Group III preventive, 10 mg/kg i.p. 2 h before 1000 mg/kg APAP, time 0 h): 12
number of surviving animals ([5]; Group III preventive, 10 mg/kg i.p. 2 h before 1000 mg/kg APAP, time 6 h): 12
number of surviving animals ([5]; Group III preventive, 10 mg/kg i.p. 2 h before 1000 mg/kg APAP, time 8 h): 12
number of surviving animals ([5]; Group III preventive, 10 mg/kg i.p. 2 h before 1000 mg/kg APAP, time 9 h): 12
number of surviving animals ([5]; Group III preventive, 10 mg/kg i.p. 2 h before 1000 mg/kg APAP, time 10 h): 11
number of surviving animals ([5]; Group III preventive, 10 mg/kg i.p. 2 h before 1000 mg/kg APAP, time 11 h): 11
number of surviving animals ([5]; Group III preventive, 10 mg/kg i.p. 2 h before 1000 mg/kg APAP, time 12 h): 11
number of surviving animals ([5]; Group III preventive, 10 mg/kg i.p. 2 h before 1000 mg/kg APAP, time 13 h): 10
number of surviving animals ([5]; Group III preventive, 10 mg/kg i.p. 2 h before 1000 mg/kg APAP, time 14 h): 10
number of surviving animals ([5]; Group III preventive, 10 mg/kg i.p. 2 h before 1000 mg/kg APAP, time 15 h): 10
number of surviving animals ([5]; Group III preventive, 10 mg/kg i.p. 2 h before 1000 mg/kg APAP, time 16 h): 9
number of surviving animals ([5]; Group III preventive, 10 mg/kg i.p. 2 h before 1000 mg/kg APAP, time 17 h): 9
number of surviving animals ([5]; Group III preventive, 10 mg/kg i.p. 2 h before 1000 mg/kg APAP, time 18 h): 9
number of surviving animals ([5]; Group III preventive, 10 mg/kg i.p. 2 h before 1000 mg/kg APAP, time 20 h): 9
number of surviving animals ([5]; Group III preventive, 10 mg/kg i.p. 2 h before 1000 mg/kg APAP, time 22 h): 8
number of surviving animals ([5]; Group III preventive, 10 mg/kg i.p. 2 h before 1000 mg/kg APAP, time 24 h): 8
number of surviving animals ([5]; Group IV curative, 10 mg/kg i.p. 6 h after 1000 mg/kg APAP, time 0 h): 12
number of surviving animals ([5]; Group IV curative, 10 mg/kg i.p. 6 h after 1000 mg/kg APAP, time 6 h): 12
number of surviving animals ([5]; Group IV curative, 10 mg/kg i.p. 6 h after 1000 mg/kg APAP, time 8 h): 11
number of surviving animals ([5]; Group IV curative, 10 mg/kg i.p. 6 h after 1000 mg/kg APAP, time 9 h): 11
number of surviving animals ([5]; Group IV curative, 10 mg/kg i.p. 6 h after 1000 mg/kg APAP, time 10 h): 10
number of surviving animals ([5]; Group IV curative, 10 mg/kg i.p. 6 h after 1000 mg/kg APAP, time 11 h): 9
number of surviving animals ([5]; Group IV curative, 10 mg/kg i.p. 6 h after 1000 mg/kg APAP, time 12 h): 9
number of surviving animals ([5]; Group IV curative, 10 mg/kg i.p. 6 h after 1000 mg/kg APAP, time 13 h): 8
number of surviving animals ([5]; Group IV curative, 10 mg/kg i.p. 6 h after 1000 mg/kg APAP, time 14 h): 8
number of surviving animals ([5]; Group IV curative, 10 mg/kg i.p. 6 h after 1000 mg/kg APAP, time 15 h): 8
number of surviving animals ([5]; Group IV curative, 10 mg/kg i.p. 6 h after 1000 mg/kg APAP, time 16 h): 7
number of surviving animals ([5]; Group IV curative, 10 mg/kg i.p. 6 h after 1000 mg/kg APAP, time 17 h): 7
number of surviving animals ([5]; Group IV curative, 10 mg/kg i.p. 6 h after 1000 mg/kg APAP, time 18 h): 7
number of surviving animals ([5]; Group IV curative, 10 mg/kg i.p. 6 h after 1000 mg/kg APAP, time 20 h): 6
number of surviving animals ([5]; Group IV curative, 10 mg/kg i.p. 6 h after 1000 mg/kg APAP, time 22 h): 6
number of surviving animals ([5]; Group IV curative, 10 mg/kg i.p. 6 h after 1000 mg/kg APAP, time 24 h): 5
apoptotic lesions in liver, treated versus not treated [6]: considerably fewer apoptotic lesions
number of surviving animals ([7]; time 0 h): 12
number of surviving animals ([7]; time 6 h): 12
number of surviving animals ([7]; time 8 h): 12
number of surviving animals ([7]; time 9 h): 12
number of surviving animals ([7]; time 10 h): 11
number of surviving animals ([7]; time 11 h): 11
number of surviving animals ([7]; time 12 h): 11
number of surviving animals ([7]; time 13 h): 10
number of surviving animals ([7]; time 14 h): 10
number of surviving animals ([7]; time 15 h): 10
number of surviving animals ([7]; time 16 h): 9
number of surviving animals ([7]; time 17 h): 9
number of surviving animals ([7]; time 18 h): 9
number of surviving animals ([7]; time 20 h): 9
number of surviving animals ([7]; time 22 h): 8
number of surviving animals ([7]; time 24 h): 8
effect on survival rate ([7]; 10 mg/kg preventively, 1000 mg/kg APAP, 24 h): increases the survival rate in a manner at least equal to the MnTBAP
transaminase activities, APAP500 alone relative to Mangafodipir pretreatment ([8]; 10 mg/kg 2 h before): 10 times
effect on transaminase activities ([8]; 10 mg/kg): decreases the transaminase activities
